Kb data for 24 compounds are collected here from patent publication US8133909B2 (Hoffmann-La Roche Inc., priority 2008, dated 2012).

Structures can show the parent of a compound that is named as a salt.

This experiment addresses T1, human orexin-2 (hOX2) receptors (Homo sapiens, UniProt O43614).
T1 construct: expressed in transfected cells
T1 sequence (O43614 1-444): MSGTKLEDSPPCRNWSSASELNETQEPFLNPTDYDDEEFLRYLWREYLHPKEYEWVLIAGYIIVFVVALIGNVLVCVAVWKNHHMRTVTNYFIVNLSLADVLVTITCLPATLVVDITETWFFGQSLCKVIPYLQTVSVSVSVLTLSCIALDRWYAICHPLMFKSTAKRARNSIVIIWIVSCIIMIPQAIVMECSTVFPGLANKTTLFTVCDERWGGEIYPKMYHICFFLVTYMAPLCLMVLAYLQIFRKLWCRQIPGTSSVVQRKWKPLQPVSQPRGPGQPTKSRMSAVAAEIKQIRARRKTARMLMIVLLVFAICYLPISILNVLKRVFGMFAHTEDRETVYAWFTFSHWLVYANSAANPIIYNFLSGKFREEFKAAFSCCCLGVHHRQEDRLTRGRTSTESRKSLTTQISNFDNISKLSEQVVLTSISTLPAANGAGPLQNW
Nature of the experiment: Intracellular Ca2+ mobilization assay (FLIPR), antagonism of orexin-A. The experiment is classed as cell-based. The note with it: CHO(dHFr-) cells stably expressing hOX2; orexin-A at EC80 as agonist; antagonist applied 25 min before; Kb=IC50/(1+[A]/EC50); read-out: Kb (μM) OX2R (human). The protocol: Intracellular Ca^2+ Mobilization Assay
The Chinese Hamster Ovary (dHFr—) mutant cell line stably expressing human orexin-1 (hOX1) or human orexin-2 (hOX2) receptors were maintained in Dulbecco's Modified Eagle Medium (1X) with GlutaMax™ 1, 4500 mg/L D-Glucose and Sodium Pyruvate (Catalog No. 31966-021, Invitrogen, Carlsbad, Calif.), 5% dialyzed fetal calf serum (Catalog No. 26400-044), 100 μg/ml penicillin and 100 μg/ml streptomycin. The cells were seeded at 5×10^4 cells/well in the poly-D-lysine treated, 96-well, black/clear-bottomed plates (Catalog No. BD356640, BD Biosciences, Palo Alto, Calif.). 24 h later, the cells were loaded for 1 h at 37° C. with 4 μM Flou-4 acetoxymethyl ester (Catalog No. F-14202, Molecular Probes, Eugene, Oreg.) in FLIPR buffer (1×HBSS, 20 mM HEPES, 2.5 mM Probenecid). Hanks' Balanced Salt Solution (HBSS) (10×) (catalog No. 14065-049) and HEPES (1M) (catalog No. 15630-056) were purchased from Invitrogen, Carlsbad, Calif. Probenecid (250 mM) (catalog No. P8761) was from Sigma, Buchs, Switzerland. The cells were washed five times with FLIPR buffer to remove excess dye and intracellular calcium mobilization, [Ca^2+]i were measured using a Fluorometric Imaging Plate Reader (FLIPR-96, Molecular Devices, Menlo Park, Calif.) as described previously (Malherbe et al., Mol. Pharmacol., 64, 823-832, 2003). Orexin A (catalog No. 1455, Toris Cookson Ltd, Bristol, UK) was used as agonist. Orexin A (50 mM stock solution in DMSO) was diluted in FLIPR buffer +0.1% BSA. The EC50 and EC80 values of orexin-A were measured daily from standard agonist concentration-response curves in CHO(dHFr—)—OX1R and —OX2R cell lines. All compounds were dissolved in 100% DMSO. Inhibition curves were determined by addition of 11 concentrations (0.0001-10 μM) of inhibitory compounds and using EC80 value of orexin-A as agonist (a concentration which gave 80% of max agonist response, determined daily). The antagonists were applied 25 min (incubation at 37° C.) before the application of the agonist. Responses were measured as peak increase in fluorescence minus basal, normalized to the maximal stimulatory effect induced by EC80 value of orexin-A or orexin- B. Inhibition curves were fitted according to the Hill equation: y=100/(1+(x/IC50)^nH), where nH=slope factor using Excel-fit 4 software (Microsoft). Kb values were calculated according to the following equation Kb=IC50/(1+[A]/EC50) where A is the concentration of agonist added which is very close to agonist EC80 value, and IC50 and EC50 values were derived from the antagonist inhibition and orexin-A or B agonist curves, respectively.

Consider `Cn1ccc2ccc(N(CCc3ccc(C(F)(F)F)cn3)C(=O)C(O)c3ccc(F)cc3)cc21` (racemic) [Example 54, (R,S)-2-(4-Fluoro-phenyl)-2-hydroxy-N-(1-methyl-1H-indol-6-yl)-N-[2-(5-trifluoromethyl-pyridin-2-yl)-ethyl]-acetamide], for which the Kb turned out to be 0.0078 µM.

In the case of `O=C([C@@H](O)c1ccccc1)N(CCc1ccc(C(F)(F)F)nc1)c1ccc2c(c1)OCCO2` [Example 55, (S)—N-(2,3-Dihydro-benzo[1,4]dioxin-6-yl)-2-hydroxy-2-phenyl-N-[2-(6-trifluoromethyl-pyridin-3-yl)-ethyl]-acetamide], the Kb came to 0.0142 µM.

Regarding `COc1cccc(N(CCc2ccc(C(F)(F)F)cn2)C(=O)C(O)c2ccc(F)cc2)c1` (racemic) [Example 76, (R,S)-2-(4-Fluoro-phenyl)-2-hydroxy-N-(3-methoxy-phenyl)-N-[2-(5-trifluoromethyl-pyridin-2-yl)-ethyl]-acetamide], the Kb came out at 0.026 µM.

Take `Cc1ccc(N(CCc2ccc(C(F)(F)F)cn2)C(=O)[C@@H](O)c2ccccc2)cc1C` [Example 26, (S)—N-(3,4-Dimethyl-phenyl)-2-hydroxy-2-phenyl-N-[2-(5-trifluoromethyl-pyridin-2-yl)-ethyl]-acetamide]: the Kb came to 0.0038 µM.

As to `O=C([C@@H](O)c1ccccc1)N(CCc1ccc(C(F)(F)F)nc1)c1ccc2c(c1)CCCC2` [Example 12, (S)-2-Hydroxy-2-phenyl-N-(5,6,7,8-tetrahydro-naphthalen-2-yl)-N-[2-(6-trifluoromethyl-pyridin-3-yl)-ethyl]-acetamide], the Kb turned out to be 0.0015 µM.

For the compound `O=C([C@@H](O)c1ccc(F)cc1)N(CCc1ccc(C(F)(F)F)nc1)c1ccc2c(c1)C(O)CCO2` (single isomer, unassigned) [Example 101, (S)-2-(4-Fluoro-phenyl)-2-hydroxy-N—((R or S)-4-hydroxy-chroman-6-yl)-N-[2-(6-trifluoromethyl-pyridin-3-yl)-ethyl]-acetamide], the Kb is 0.0116 µM.

On to `COc1ccc(N(CCc2ccc(C(F)(F)F)cc2)C(=O)C(N)c2ccccc2)cn1` (racemic) [Example 36, (R,S)-2-Amino-N-(6-methoxy-pyridin-3-yl)-2-phenyl-N-[2-(4-trifluoromethyl-phenyl)-ethyl]-acetamide], for which the Kb turned out to be 0.061 µM.

As for `COc1cc(N(CCc2ccc(C(F)(F)F)cn2)C(=O)C(O)c2ccc(F)cc2)ccc1Cl` (racemic) [Example 79, (R,S)—N-(4-Chloro-3-methoxy-phenyl)-2-(4-fluoro-phenyl)-2-hydroxy-N-[2-(5-trifluoromethyl-pyridin-2-yl)-ethyl]-acetamide], the Kb was 0.0236 µM.

Take `CC(=O)O[C@H](C(=O)N(CCc1ccc(C(F)(F)F)cn1)c1ccc(C)c(C)c1)c1ccccc1` [Example 65, Acetic acid (S)-{(3,4-dimethyl-phenyl)-[2-(5-trifluoromethyl-pyridin-2-yl)-ethyl]-carbamoyl}-phenyl-methyl ester]: the Kb was 0.0475 µM.

For the compound `COc1cc(N(CCc2ccc(C(F)(F)F)cn2)C(=O)C(O)c2ccc(F)cc2)ccc1F` (racemic) [Example 88, (R,S)—N-(4-Fluoro-3-methoxy-phenyl)-2-(4-fluoro-phenyl)-2-hydroxy-N-[2-(5-trifluoromethyl-pyridin-2-yl)-ethyl]-acetamide], the Kb worked out at 0.0106 µM.

Take `COc1ccc(N(CCc2ccc(C(F)(F)F)nc2)C(=O)[C@@H](N)c2ccccc2)cc1OC` [Example 5, (S)-2-Amino-N-(3,4-dimethoxy-phenyl)-2-phenyl-N-[2-(6-trifluoromethyl-pyridin-3-yl)-ethyl]-acetamide]: the Kb stood at 0.0005 µM.

As to `Cc1ccc(N(CCc2ccc(C(F)(F)F)nc2)C(=O)[C@@H](C)c2ccccc2)cc1C` [Example 24, (S)—N-(3,4-Dimethyl-phenyl)-2-phenyl-N-[2-(6-trifluoromethyl-pyridin-3-yl)-ethyl]-propionamide], the Kb was 0.0839 µM.

For `Cc1ccc(N(CCc2ccc(C(F)(F)F)nc2)C(=O)[C@@H](O)c2ccccc2)cc1C` [Example 2, (S)—N-(3,4-Dimethyl-phenyl)-2-hydroxy-2-phenyl-N-[2-(6-trifluoromethyl-pyridin-3-yl)-ethyl]-acetamide], the Kb came to 0.0025 µM.

For the compound `Cc1cc(N(CCc2ccc(C(F)(F)F)cc2)C(=O)C(N)c2ccc(Cl)cc2)n(C)n1` (racemic) [Example 39, (R,S)-2-Amino-2-(4-chloro-phenyl)-N-(2,5-dimethyl-2H-pyrazol-3-yl)-N-[2-(4-trifluoromethyl-phenyl)-ethyl]-acetamide], the Kb worked out at 0.0439 µM.

As for `Cc1nn(C)c2ccc(N(CCc3ccc(C(F)(F)F)nc3)C(=O)[C@@H](O)c3ccc(F)cc3)cc12` [Example 107, (S)—N-(1,3-Dimethyl-1H-indazol-5-yl)-2-(4-fluoro-phenyl)-2-hydroxy-N-[2-(6-trifluoromethyl-pyridin-3-yl)-ethyl]-acetamide], the antagonist equilibrium constant (Kb) turned out to be 0.0046 µM.

Take “(S)-2-Hydroxy-N-(3-methoxy-phenyl)-2-phenyl-N-[2-(6-trifluoromethyl-pyridin-3-yl)-ethyl]-acetamide [Example 58]”: the Kb is 0.0167 µM.

For the compound `Cc1ccc(N(CCc2ccc(C(F)(F)F)nc2)C(=O)[C@@H](N)c2ccccc2)cc1C` [Example 1, (S)-2-Amino-N-(3,4-dimethyl-phenyl)-2-phenyl-N-[2-(6-trifluoromethyl-pyridin-3-yl)-ethyl]-acetamide], the Kb was 0.0007 µM.

Regarding `CCn1nc(C)c2cc(N(CCc3ccc(C(F)(F)F)nc3)C(=O)[C@@H](O)c3ccccc3)ccc21` [Example 48, (S)—N-(1-Ethyl-3-methyl-1H-indazol-5-yl)-2-hydroxy-2-phenyl-N-[2-(6-trifluoromethyl-pyridin-3-yl)-ethyl]-acetamide], the Kb amounted to 0.07 µM.

As for `Cc1ccc(N(CCc2ccc(C(F)(F)F)nc2)C(=O)[C@@H](O)c2ccc(F)cc2)cc1C` [Example 7, (S)—N-(3,4-Dimethyl-phenyl)-2-(4-fluoro-phenyl)-2-hydroxy-N-[2-(6-trifluoromethyl-pyridin-3-yl)-ethyl]-acetamide], the Kb was 0.0005 µM.

Turning to `O=C([C@@H](O)c1ccccc1)N(CCc1ccc(C(F)(F)F)nc1)c1cnc2ccccc2c1` [Example 49], the Kb worked out at 0.0361 µM.

Consider `O=C(C(O)c1ccc(F)cc1)N(CCc1ccc(C(F)(F)F)cn1)c1ccc(F)c(CO)c1` (racemic) [Example 90, (R,S)—N-(4-Fluoro-3-hydroxymethyl-phenyl)-2-(4-fluoro-phenyl)-2-hydroxy-N-[2-(5-trifluoromethyl-pyridin-2-yl)-ethyl]-acetamide], for which the Kb was determined as 0.0438 µM.

`O=C([C@@H](O)c1ccc(F)cc1)N(CCc1ccc(C(F)(F)F)cn1)c1ccc2c(c1)CCO2` [Example 87, (S)—N-(2,3-Dihydro-benzofuran-5-yl)-2-(4-fluoro-phenyl)-2-hydroxy-N-[2-(5-trifluoromethyl-pyridin-2-yl)-ethyl]-acetamide]: the Kb was found to be 0.0198 µM.

As for `COC(=O)c1cc(N(CCc2ccc(C(F)(F)F)cn2)C(=O)C(O)c2ccc(F)cc2)ccc1Cl` (racemic) [Example 99, (R,S)-2-Chloro-5-{[2-(4-fluoro-phenyl)-2-hydroxy-acetyl]-[2-(5-trifluoromethyl-pyridin-2-yl)-ethyl]-amino}-benzoic acid methyl ester], the Kb came out at 0.0285 µM.

Regarding `Cc1ccc(CCN(C(=O)[C@@H](N)c2ccccc2)c2ccc(C)c(C)c2)nc1` [Example 21, (S)-2-Amino-N-(3,4-dimethyl-phenyl)-N-[2-(5-methyl-pyridin-2-yl)-ethyl]-2-phenyl-acetamide hydrochloride], the Kb turned out to be 0.0047 µM.
